System: IMP-1-expressing E. coli growth, with imipenem, MIC
Assay: MIC in IMP1-transformed E. coli with imipenem – imipenem co-treatment, counter-screen for IMP-1/VIM-2 inhibitor project, late-stage follow-up (AID 463099)

Going from `Cc1cc[c]([Hg+])cc1` to `CC(=O)Nc1cc[c]([Hg+])cc1`, the MIC rises from 0.94 µM to 2.5 µM (2.7-fold).

Going from `[Hg+][c]1ccccc1` to `COc1cccc[c]1[Hg+]`, the MIC rises from 0.63 µM to 1.09 µM (1.7-fold).

Going from `O=C(O)c1cc[c]([Hg][Cl])cc1` to `O=C(O)c1ccc[c]([Hg+])c1`, the MIC falls from 9.38 µM to 3.75 µM (2.5-fold).
